Columns and labels:
Test in all cases: UAG suppression of SAMP1 reporter in H. volcanii, immunoblot and LC-MS/MS of the product
Assay type in all cases: cell-based
HMET1 PylRS1 [1] = target: T1, HMET1 PylRS1 (Candidatus Methanohalarchaeum thermophilum, UniProt A0A1Q6DXK2, N163S/V165I); conditions: 1 mM 3-I-Phe in medium, tRNAPyl1, 42 °C; printed as PylRS1-SI
T1 construct: gene BTN85_1602; deltaPylSn type (catalytic domain only), N-terminal 6xHis tag, expressed in Haloferax volcanii

HMET1 PylRS1 [2] = target: T2, HMET1 PylRS1 (Candidatus Methanohalarchaeum thermophilum, UniProt A0A1Q6DXK2); conditions: 1 mM BocK in medium, cognate tRNAPyl1, 42 °C
T2 construct: gene BTN85_1602; deltaPylSn type (catalytic domain only), N-terminal 6xHis tag, expressed in Haloferax volcanii
T2 sequence (A0A1Q6DXK2 1-273): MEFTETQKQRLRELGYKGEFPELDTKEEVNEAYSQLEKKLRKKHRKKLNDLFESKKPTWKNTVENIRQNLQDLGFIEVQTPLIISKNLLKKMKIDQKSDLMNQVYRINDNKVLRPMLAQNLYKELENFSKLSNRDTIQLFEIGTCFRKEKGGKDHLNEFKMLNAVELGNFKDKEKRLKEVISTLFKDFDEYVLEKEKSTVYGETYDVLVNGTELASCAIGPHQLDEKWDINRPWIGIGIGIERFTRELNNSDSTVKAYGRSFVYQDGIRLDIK

HMET1 PylRS2 = target: T3, HMET1 PylRS2 (Candidatus Methanohalarchaeum thermophilum, UniProt A0A1Q6DTA0); conditions: 1 mM BocK in medium, cognate tRNAPyl2, 42 °C
T3 construct: gene BTN85_0018; deltaPylSn type (catalytic domain only), N-terminal 6xHis tag, expressed in Haloferax volcanii
T3 sequence (A0A1Q6DTA0 1-273): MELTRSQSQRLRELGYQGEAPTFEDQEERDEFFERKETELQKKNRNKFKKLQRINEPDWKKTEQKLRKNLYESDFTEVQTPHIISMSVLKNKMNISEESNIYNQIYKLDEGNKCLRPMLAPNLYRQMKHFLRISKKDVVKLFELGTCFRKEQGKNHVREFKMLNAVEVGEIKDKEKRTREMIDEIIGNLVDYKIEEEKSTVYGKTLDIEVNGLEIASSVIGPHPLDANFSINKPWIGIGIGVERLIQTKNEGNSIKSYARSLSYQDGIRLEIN

T1 sequence (A0A1Q6DXK2 entry or part of it N163S/V165I): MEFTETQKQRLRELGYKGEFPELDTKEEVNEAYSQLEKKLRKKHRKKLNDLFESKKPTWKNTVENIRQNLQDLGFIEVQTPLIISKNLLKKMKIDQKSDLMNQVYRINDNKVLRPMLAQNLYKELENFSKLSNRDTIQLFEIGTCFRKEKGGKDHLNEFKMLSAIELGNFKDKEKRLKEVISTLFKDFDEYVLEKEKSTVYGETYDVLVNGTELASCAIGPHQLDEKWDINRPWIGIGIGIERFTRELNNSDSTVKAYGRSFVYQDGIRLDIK

Row | SMILES | UAG suppression of SAMP1 reporter in H. volcanii, immunoblot and LC-MS/MS of the (HMET1 PylRS1 [1]) | UAG suppression of SAMP1 reporter in H. volcanii, immunoblot and LC-MS/MS of the (HMET1 PylRS1 [2]) | UAG suppression of SAMP1 reporter in H. volcanii, immunoblot and LC-MS/MS of the (HMET1 PylRS2)
1 | N[C@@H](Cc1cccc(I)c1)C(=O)O [3-I-Phe] | The PylRS1-SI/tRNA^Pyl1 pair exhibited strong amber suppression in a 3-I-Phe-dependent manner |  | 
2 | CC(C)(C)OC(=O)NCCCC[C@H](N)C(=O)O [BocK] |  | both HMET1 PylRS/tRNA^Pyl pairs facilitated efficient amber suppression | native HMET1 PylRS/tRNA^Pyl pairs incorporate BocK into proteins via genetic code expansion in H. volcanii

Reference: publication PMC9071458, “The tRNA discriminator base defines the mutual orthogonality of two distinct pyrrolysyl-tRNA synthetase/tRNA^Pyl pairs in the same organism” (Nucleic Acids Research, 2022)
